Test results: US8697705B2, “Isoindolinone derivatives” (Hoffmann-La Roche Inc., priority 2011, dated 2014)

Assays:
[1] = target: T1, Recombinant human liver GK1 (GST-GK) (Homo sapiens, UniProt P35557); experiment: Glucokinase in vitro assay (G6PDH-coupled, NADH generation, OD340); type: biochemical; settings: 30° C., 5 mM D-glucose, 10% dimethylsulfoxide
T1 construct: made in house; host or cells: E. coli
T1 sequence (P35557 1-466 isoform P35557-2): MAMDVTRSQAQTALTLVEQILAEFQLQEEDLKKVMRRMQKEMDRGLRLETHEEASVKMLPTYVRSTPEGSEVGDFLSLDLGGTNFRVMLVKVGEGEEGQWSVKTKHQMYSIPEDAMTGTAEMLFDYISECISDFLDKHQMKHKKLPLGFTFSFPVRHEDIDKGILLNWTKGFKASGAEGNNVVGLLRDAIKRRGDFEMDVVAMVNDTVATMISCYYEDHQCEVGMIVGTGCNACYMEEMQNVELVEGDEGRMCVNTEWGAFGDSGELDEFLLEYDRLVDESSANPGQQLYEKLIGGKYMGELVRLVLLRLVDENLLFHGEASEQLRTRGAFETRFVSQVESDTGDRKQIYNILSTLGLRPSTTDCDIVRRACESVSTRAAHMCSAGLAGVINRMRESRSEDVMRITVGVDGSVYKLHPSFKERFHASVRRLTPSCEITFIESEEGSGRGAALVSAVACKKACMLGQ
Description: Glucokinase In Vitro Assay Protocol:
Glucokinase (GK) was assayed by coupling the production of glucose-6-phosphate to the generation of NADH with glucose-6-phosphate dehydrogenase (G6PDH, 0.75-1 kunits/mg; Boehringer Mannheim, Indianapolis, Ind.) from Leuconostoc mesenteroides as the coupling enzyme (Scheme 2).
Recombinant human liver GK1 was expressed in E. coli as a glutathione S-transferase fusion protein (GST-GK) and was purified by chromatography over a glutathione-Sepharose 4B affinity column using the procedure provided by the manufacturer (Amersham Pharmacia Biotech, Piscataway, N.J.).
The assay was conducted at 30° C. in a flat bottom 96-well tissue culture plate from Costar (Cambridge, Mass.) with a final incubation volume of 120 μL. The incubation reaction contained the following: 25 mM Hepes buffer (pH 7.1), 25 mM KCl, 5 mM D-glucose, 1 mM ATP, 1.8 mM NAD, 2 mM MgCl2, 1 μM sorbitol-6-phosphate, 1 mM dithiothreitol, test drug or 10% dimethylsulfoxide, ˜7 units/ml G6PDH, and GK (see below). All organic reagents were >98% pure and were from Boehringer Mannheim with the exceptions of D-glucose and Hepes which were from Sigma Chemical Co, St Louis, Mo. Test compounds were dissolved in dimethylsulfoxide and were added to the incubation reaction minus GST-GK in a volume of 12 μL to yield a final dimethylsulfoxide concentration of 10%. This mix was pre-incubated in the temperature controlled chamber of a SPECTRAmax 250 microplate spectrophotometer (Molecular Devices Corporation, Sunnyvale, Calif.) for 10 minutes to allow temperature equilibrium and then the reaction was started by the addition of 20 μL GST-GK.
After addition of enzyme, the increase in optical density (OD) at 340 nm was monitored spectrophotometrically to determine the rate of change (OD340 per min). The GK activity (OD340/min) in control wells (10% dimethylsulfoxide minus GK activators) was compared with the activity in wells containing test GK activators, and the concentration of activator that produced a 50% increase in the activity of GK, i.e., the SC1.5, was calculated.

C57BL/6J mice = experiment: Glucokinase activator in vivo screen: blood glucose lowering after oral gavage in mice; settings: Mus musculus, C57B6 mice, read-out: % gluc lowering @ 2 H; for change in vivo at 25 mg/kg: vs. control at 2 hours post 25 mg/kg oral dose
Description: Glucokinase Activator In Vivo Screen Protocol in Lean Mice:
Lean C57BL/6J mice were orally dosed via gavage with Glucokinase (GK) activator following a two hour fasting period. Blood glucose determinations were made at various (e.g. 0, 1, 2, 4 and 8 hours post-oral gavage) times during the study.
C57Bl/6J mice were obtained from Jackson Laboratory (Bar Harbor, Me.) and were maintained in a light-dark cycle with lights on from 0600-1800 hr. For studies in lean mice, the mice were received at age ten weeks and given ad libitum access to control diet (LabDiet 5001 chow, PMI Nutrition, Brentwood, Mo.), and were at least age 11 weeks at the time of study. For studies in the DIO model, the mice were received at age five weeks and given ad libitum access to Bio-Sery F3282 High Fat Diet (Frenchtown, N.J.), and were at least age 16 weeks at the time of study. The experiments were conducted during the light phase of the light-dark cycle. Mice (n=6) are weighed and fasted for a two hour period prior to oral treatment. GK activators are formulated in Gelucire vehicle (Ethanol:Gelucire44/14:PEG400q.s. 4:66:30 v/w/v). For studies in lean mice, the mice were dosed orally with 5.0 μL per gram of body weight (i.e. 5 ml/kg×10.0 mg/ml formulation to equal a 50 mg/kg dose). For studies in DIO mice, the mice were dosed orally with 5.0 μL per gram of body weight (i.e. 5.0 ml/kg×5 mg/ml formulation to equal a 25 mg/kg dose). Immediately prior to dosing, a pre-dose (time zero) blood glucose reading was acquired by snipping off a small portion of the animal's tail and collecting 15 μL blood into a heparinized capillary tube for analysis. Following GK activator administration, additional blood glucose readings were taken at various time points post dose from the same tail wound. Results were interpreted by comparing the mean blood glucose values of vehicle treated mice with GK activator treated mice over the study period.
Table 2 below provides data for % glucose lowering of a representative number of compounds of the present invention vs. control at 2 hours post 25 or 50 mg/kg dose in C57B6 mice: […]

Compound	SC1.5 (concentration of activator that produced a 50% increase in the activity of GK) [1]	change in vivo at 25 mg/kg (C57BL/6J mice)	change in vivo at 50 mg/kg (C57BL/6J mice; vs. control at 2 hours post 50 mg/kg oral dose)
COC(C)(C)Cn1ccc(NC(=O)[C@H](CC2CCCC2)N2Cc3c(cccc3C(F)(F)F)C2=O)n1 [Example 7, (S)-3-Cyclopentyl-N-[1-(2-methoxy-2-methyl-propyl)-1H-pyrazol-3-yl]-2-(1-oxo-4-trifluoromethyl-1,3-dihydro-isoindol-2-yl)-propionamide]	0.032 µM	-48.2%	
COCCn1ccc(NC(=O)[C@H](CC2CCCC2)N2Cc3c(cccc3C(F)(F)F)C2=O)n1 [Example 13, (S)-3-Cyclopentyl-N-[1-(2-methoxy-ethyl)-1H-pyrazol-3-yl]-2-(1-oxo-4-trifluoromethyl-1,3-dihydro-isoindol-2-yl)-propionamide]	0.328 µM		-45.2%
O=C(Nc1cnccn1)[C@H](CC1CCCC1)N1Cc2c(cccc2C(F)(F)F)C1=O [Example 15, (S)-3-Cyclopentyl-2-(1-oxo-4-trifluoromethyl-1,3-dihydro-isoindol-2-yl)-N-pyrazin-2-yl-propionamide]	0.176 µM	-22.5%	
CC(C)OCCn1ccc(NC(=O)[C@H](CC2CCCC2)N2Cc3c(cccc3C(F)(F)F)C2=O)n1 [Example 17, (S)-3-Cyclopentyl-N-[1-(2-isopropoy-ethyl)-1H-pyrazol-3-yl]-2-(1-oxo-4-trifluoromethyl-1,3-dihydro-isoindol-2-yl)-propionamide]	0.179 µM	-40.2%	
COCCn1ccc(NC(=O)[C@H](CC2CCCCC2)N2Cc3c(F)cccc3C2=O)n1 [Example 18, (S)-3-Cyclohexyl-2-(4-fluoro-1-oxo-1,3-dihydro-isoindol-2-yl)-N-[1-(2-methoxy-ethyl)-1H-pyrazol-3-yl]-propionamide]	0.962 µM	-25.4%	
O=C(Nc1cnc([C@H](O)CO)cn1)[C@H](CC1CCCC1)N1Cc2c(cccc2C(F)(F)F)C1=O [Example 21, (S)-3-Cyclopentyl-N-[5-((S)-1,2-dihydroxy-ethyl)-pyrazin-2-yl]-2-(1-oxo-4-trifluoromethyl-1,3-dihydro-isoindol-2-yl)-propionamide]	0.255 µM	-36.6%	
